Reference: the NIST ThermoML archive (doi:10.1016/j.jct.2019.02.011)

Assay: xn = mol fraction of the nth substance listed
Conditions: Liquid, Vibrating tube method

COC(=O)OC [dimethyl carbonate] + CO
mass density [kg/m3]
Conditions	100 kPa	5000 kPa	10000 kPa	15000 kPa	20000 kPa	25000 kPa	30000 kPa	35000 kPa	40000 kPa
288.15 K, x1 = 0.0253	810.84	815.18	819.54	823.48	827.53	831.19	834.68	838.22	841.6
288.15 K, x1 = 0.0503	824.62	828.97	833.29	837.23	841.29	844.9	848.4	851.95	855.33
288.15 K, x1 = 0.0745	837.24	841.59	845.92	849.88	853.93	857.55	861.06	864.56	867.95
288.15 K, x1 = 0.101	850.42	854.82	859.16	863.12	867.17	870.8	874.32	877.83	881.23
288.15 K, x1 = 0.1502	872.98	877.39	881.74	885.77	889.81	893.46	897.03	900.56	903.97
288.15 K, x1 = 0.2059	896.31	900.74	905.09	909.15	913.18	916.85	920.43	923.97	927.4
288.15 K, x1 = 0.25	913.24	917.63	921.99	926.05	930.08	933.76	937.36	940.91	944.34
288.15 K, x1 = 0.3004	930.93	935.33	939.69	943.77	947.8	951.49	955.1	958.61	962.05
288.15 K, x1 = 0.3426	944.7	949.1	953.42	957.51	961.53	965.18	968.8	972.32	975.72
288.15 K, x1 = 0.3984	961.49	965.91	970.23	974.34	978.3	981.96	985.59	989.12	992.53
288.15 K, x1 = 0.4514	976.13	980.55	984.83	988.95	992.91	996.58	1000.22	1003.71	1007.07
288.15 K, x1 = 0.5054	989.85	994.22	998.51	1002.64	1006.6	1010.28	1013.92	1017.42	1020.79
288.15 K, x1 = 0.5509	1000.55	1004.93	1009.17	1013.31	1017.27	1020.95	1024.6	1028.11	1031.49
288.15 K, x1 = 0.6002	1011.31	1015.7	1019.95	1024.09	1028.04	1031.69	1035.34	1038.85	1042.19
288.15 K, x1 = 0.6469	1020.74	1025.14	1029.39	1033.54	1037.49	1041.14	1044.75	1048.27	1051.61
288.15 K, x1 = 0.6993	1030.63	1035.03	1039.28	1043.44	1047.34	1051	1054.61	1058.08	1061.43
288.15 K, x1 = 0.7496	1039.53	1043.88	1048.14	1052.31	1056.2	1059.86	1063.48	1066.96	1070.31
288.15 K, x1 = 0.799	1047.69	1052.04	1056.25	1060.43	1064.32	1067.94	1071.56	1075.04	1078.4
288.15 K, x1 = 0.837	1053.71	1058.02	1062.23	1066.41	1070.3	1073.92	1077.55	1080.99	1084.34
288.15 K, x1 = 0.9093	1064.47	1068.78	1072.95	1077.14	1080.97	1084.6	1088.24	1091.68	1094.99
288.15 K, x1 = 0.9239	1066.51	1070.83	1074.99	1079.18	1083.02	1086.65	1090.28	1093.73	1097.04
288.15 K, x1 = 0.9575	1071.14	1075.46	1079.63	1083.83	1087.66	1091.29	1094.93	1098.38	1101.69
288.15 K, x1 = 0.9861	1074.98	1079.3	1083.47	1087.67	1091.5	1095.14	1098.78	1102.23	1105.55
288.15 K, x1 = 1	1076.83	1081.15	1085.32	1089.52	1093.35	1096.99	1100.63	1104.08	1107.4
293.15 K, x1 = 0.0253	805.71	810.46	814.95	819.01	822.93	826.85	830.45	833.84	837.02
293.15 K, x1 = 0.0503	819.38	824.13	828.58	832.64	836.57	840.49	844.1	847.49	850.69
293.15 K, x1 = 0.0745	831.94	836.69	841.14	845.15	849.09	853.02	856.63	860.04	863.25
293.15 K, x1 = 0.101	844.99	849.75	854.2	858.22	862.17	866.1	869.72	873.13	876.36
293.15 K, x1 = 0.1502	867.43	872.18	876.65	880.67	884.64	888.56	892.2	895.68	898.94
293.15 K, x1 = 0.2059	890.58	895.35	899.82	903.9	907.88	911.86	915.51	919	922.29
293.15 K, x1 = 0.25	907.39	912.16	916.63	920.72	924.71	928.69	932.36	935.81	939.11
293.15 K, x1 = 0.3004	925.01	929.73	934.21	938.3	942.31	946.29	949.97	953.48	956.8
293.15 K, x1 = 0.3426	938.66	943.38	947.86	951.96	955.98	959.96	963.65	967.16	970.51
293.15 K, x1 = 0.3984	955.38	960.11	964.54	968.64	972.68	976.66	980.36	983.88	987.25
293.15 K, x1 = 0.4514	969.9	974.63	979.07	983.17	987.22	991.16	994.86	998.4	1001.78
293.15 K, x1 = 0.5054	983.54	988.23	992.67	996.78	1000.83	1004.77	1008.44	1011.98	1015.38
293.15 K, x1 = 0.5509	994.14	998.83	1003.27	1007.38	1011.44	1015.38	1019.05	1022.6	1026.01
293.15 K, x1 = 0.6002	1004.83	1009.48	1013.92	1018.04	1022.11	1026.05	1029.73	1033.28	1036.7
293.15 K, x1 = 0.6469	1014.25	1018.9	1023.3	1027.41	1031.49	1035.43	1039.12	1042.68	1046.11
293.15 K, x1 = 0.6993	1024.07	1028.72	1033.07	1037.19	1041.28	1045.22	1048.91	1052.48	1055.92
293.15 K, x1 = 0.7496	1032.91	1037.51	1041.86	1045.98	1050.08	1054.02	1057.72	1061.24	1064.69
293.15 K, x1 = 0.799	1041.06	1045.66	1050.01	1054.09	1058.13	1062.08	1065.78	1069.31	1072.77
293.15 K, x1 = 0.837	1047.02	1051.63	1055.93	1060.01	1064.06	1068.01	1071.71	1075.29	1078.71
293.15 K, x1 = 0.9093	1057.71	1062.27	1066.58	1070.66	1074.72	1078.67	1082.38	1085.91	1089.35
293.15 K, x1 = 0.9239	1059.75	1064.31	1068.62	1072.7	1076.76	1080.71	1084.42	1087.96	1091.39
293.15 K, x1 = 0.9575	1064.38	1068.94	1073.25	1077.33	1081.4	1085.34	1089.06	1092.6	1096.04
293.15 K, x1 = 0.9861	1068.22	1072.78	1077.09	1081.17	1085.23	1089.18	1092.9	1096.44	1099.94
293.15 K, x1 = 1	1070.06	1074.62	1078.93	1083.01	1087.08	1091.03	1094.75	1098.34	1101.84
298.15 K, x1 = 0.0253	801.12	805.88	810.17	814.5	818.56	–	–	–	–
298.15 K, x1 = 0.0503	814.67	819.42	823.72	828.05	832.13	–	–	–	–
298.15 K, x1 = 0.0745	827.15	831.91	836.21	840.55	844.63	–	–	–	–
298.15 K, x1 = 0.101	840.09	844.85	849.21	853.54	857.59	–	–	–	–
298.15 K, x1 = 0.1502	862.34	867.1	871.47	875.8	879.93	–	–	–	–
298.15 K, x1 = 0.2059	885.36	890.12	894.5	898.84	902.99	–	–	–	–
298.15 K, x1 = 0.25	902	906.75	911.19	915.53	919.64	–	–	–	–
298.15 K, x1 = 0.3004	919.49	924.24	928.68	933.03	937.16	–	–	–	–
298.15 K, x1 = 0.3426	933.01	937.77	942.22	946.56	950.71	–	–	–	–
298.15 K, x1 = 0.3984	949.56	954.26	958.77	963.12	967.28	–	–	–	–
298.15 K, x1 = 0.4514	964.01	968.71	973.22	977.52	981.7	–	–	–	–
298.15 K, x1 = 0.5054	977.58	982.28	986.75	991.05	995.2	–	–	–	–
298.15 K, x1 = 0.5509	988.15	992.8	997.28	1001.58	–	–	–	–	–
298.15 K, x1 = 0.6002	998.73	1003.39	1007.87	1012.12	–	–	–	–	–
298.15 K, x1 = 0.6469	1008.04	1012.69	1017.17	1021.43	–	–	–	–	–
298.15 K, x1 = 0.6993	1017.79	1022.44	1026.93	1031.19	–	–	–	–	–
298.15 K, x1 = 0.7496	1026.56	1031.16	1035.66	1039.91	–	–	–	–	–
298.15 K, x1 = 0.799	1034.65	1039.25	1043.74	1047.95	–	–	–	–	–
298.15 K, x1 = 0.837	1040.55	1045.15	1049.65	1053.86	–	–	–	–	–
298.15 K, x1 = 0.9093	1051.17	1055.73	1060.23	1064.44	–	–	–	–	–
298.15 K, x1 = 0.9239	1053.21	1057.76	1062.27	1066.48	–	–	–	–	–
298.15 K, x1 = 0.9575	1057.78	1062.33	1066.84	1071.05	–	–	–	–	–
298.15 K, x1 = 0.9861	1061.61	1066.16	1070.67	1074.88	–	–	–	–	–
298.15 K, x1 = 1	1063.45	1068	1072.51	1076.72	–	–	–	–	–
